Converted amounts (≈) assume the structure as drawn. Values belong to the compound of their own block, whether it stands above or below them. The source made the active and inactive calls. No cut-off for these calls is given here.
Key:
[1] = Lipophilicity, logP of compound; type: physicochemical; details: octanol/water
[2] = Antimycobacterial activity against Mycobacterium abscessus subsp. abscessus bamboo strain assessed as inhibition of mycobacterial growth incubated for 3 days by broth microdilution method; type: functional; details: Mycobacteroides abscessus, 72 h, time 3 day
[3] = Inhibition of Mycobacterium abscessus DNA gyrase using pBR322 DNA as substrate […] by fluorescence based microplate reader assay; set-up: species or system Mycobacteroides abscessus
[4] = test system: Mycobacterium abscessus subsp. abscessus; experiment: Upregulation of RecA promoter activity in P4C resistant Mycobacterium abscessus subsp. abscessus ATCC 19977 mutant D91N assessed as bacterial DNA damage by luminescence assay; type: functional; details: time 3.0 day
[5] = test system: Mycobacterium abscessus subsp. abscessus; experiment: Upregulation of RecA promoter activity in Mycobacterium abscessus subsp. abscessus ATCC 19977 assessed as bacterial DNA damage by luminescence assay; type: functional
[6] = Antimycobacterial activity against Mycobacterium abscessus subsp. bolletii CCUG 50184T assessed as inhibition of mycobacterial growth incubated for 3 days by broth microdilution method; type: functional; details: Mycobacteroides abscessus, 72 h, time 3 day
[7] = test system: Mycobacteroides abscessus; experiment: Antimycobacterial activity against Mycobacterium abscessus K21 assessed as inhibition of mycobacterial growth incubated for 3 days by broth microdilution method; type: functional; details: K21, 72 h, time 3 day
[8] = test system: Mycobacteroides abscessus; experiment: Antimycobacterial activity against Mycobacterium abscessus ATCC 19977 assessed as inhibition of mycobacterial growth incubated for 3 days by broth microdilution method; type: functional; details: ATCC 19977, 72 h, time 3 day
Staphylococcus aureus = experiment: Antibacterial activity against Staphylococcus aureus assessed as inhibition of bacterial growth incubated for 3 days by broth microdilution method; type: functional; details: 72 h, time 3 day
[9] = Antimycobacterial activity against Mycobacterium abscessus subsp. massiliense CCUG 48898T assessed as inhibition of mycobacterial growth incubated for 3 days by broth microdilution method; type: functional; details: Mycobacteroides abscessus, 72 h, time 3 day
Mycobacterium avium = experiment: Antimycobacterial activity against Mycobacterium avium 11 assessed as inhibition of mycobacterial growth incubated for 3 days by broth microdilution method; type: functional; details: Mycobacterium avium, 11, 72 h; time 3 day
NIH3T3 = experiment: Cytotoxicity against mouse NIH3T3 cells assessed as reduction in cell viability upto 30 uM after 24 hrs by SRB assay; type: toxicity, cell-based; details: nih3t3, 24 h
HEK293 = experiment: Cytotoxicity against human HEK293 cells assessed as reduction in cell viability upto 30 uM after 24 hrs by SRB assay; type: toxicity, cell-based; details: hek293, 24 h
[10] = Stability of compound in CD1 mouse plasma assessed as parent compound remaining by QE-HRMS analysis; type: ADME, cell-free
MCF7 = experiment: Cytotoxicity against human MCF7 cells assessed as reduction in cell viability upto 30 uM after 24 hrs by SRB assay; type: functional, cell-based; details: dose microM <=30, time 24.0 hrs
FaDu = experiment: Cytotoxicity against human FaDu cells assessed as reduction in cell viability upto 30 uM after 24 hrs by SRB assay; type: functional, cell-based; details: dose microM <=30, time 24.0 hrs
HT-29 = experiment: Cytotoxicity against human HT-29 cells assessed as reduction in cell viability upto 30 uM after 24 hrs by SRB assay; type: functional, cell-based; details: dose microM <=30, time 24.0 hrs
[11] = Stability of compound in CD1 mouse at 25 mg/kg, po by HPLC-MS/MS analysis; type: ADME, organism-based; details: in vivo
hERG (KCNH2) = hERG (KCNH2) (Homo sapiens, UniProt Q12809); experiment: Inhibition of human ERG at 10 uM; type: toxicity
A-375 = experiment: Cytotoxicity against human A375 cells assessed as reduction in cell viability upto 30 uM after 24 hrs by SRB assay; type: functional, cell-based; details: dose microM <=30, time 24.0 hrs
[12] = biological target: Voltage-gated inwardly rectifying potassium channel KCNH2 (Homo sapiens, UniProt Q12809); experiment: Inhibition of human ERG; type: toxicity
Chain of Voltage-gated inwardly rectifying potassium channel KCNH2 (Q12809 whole entry): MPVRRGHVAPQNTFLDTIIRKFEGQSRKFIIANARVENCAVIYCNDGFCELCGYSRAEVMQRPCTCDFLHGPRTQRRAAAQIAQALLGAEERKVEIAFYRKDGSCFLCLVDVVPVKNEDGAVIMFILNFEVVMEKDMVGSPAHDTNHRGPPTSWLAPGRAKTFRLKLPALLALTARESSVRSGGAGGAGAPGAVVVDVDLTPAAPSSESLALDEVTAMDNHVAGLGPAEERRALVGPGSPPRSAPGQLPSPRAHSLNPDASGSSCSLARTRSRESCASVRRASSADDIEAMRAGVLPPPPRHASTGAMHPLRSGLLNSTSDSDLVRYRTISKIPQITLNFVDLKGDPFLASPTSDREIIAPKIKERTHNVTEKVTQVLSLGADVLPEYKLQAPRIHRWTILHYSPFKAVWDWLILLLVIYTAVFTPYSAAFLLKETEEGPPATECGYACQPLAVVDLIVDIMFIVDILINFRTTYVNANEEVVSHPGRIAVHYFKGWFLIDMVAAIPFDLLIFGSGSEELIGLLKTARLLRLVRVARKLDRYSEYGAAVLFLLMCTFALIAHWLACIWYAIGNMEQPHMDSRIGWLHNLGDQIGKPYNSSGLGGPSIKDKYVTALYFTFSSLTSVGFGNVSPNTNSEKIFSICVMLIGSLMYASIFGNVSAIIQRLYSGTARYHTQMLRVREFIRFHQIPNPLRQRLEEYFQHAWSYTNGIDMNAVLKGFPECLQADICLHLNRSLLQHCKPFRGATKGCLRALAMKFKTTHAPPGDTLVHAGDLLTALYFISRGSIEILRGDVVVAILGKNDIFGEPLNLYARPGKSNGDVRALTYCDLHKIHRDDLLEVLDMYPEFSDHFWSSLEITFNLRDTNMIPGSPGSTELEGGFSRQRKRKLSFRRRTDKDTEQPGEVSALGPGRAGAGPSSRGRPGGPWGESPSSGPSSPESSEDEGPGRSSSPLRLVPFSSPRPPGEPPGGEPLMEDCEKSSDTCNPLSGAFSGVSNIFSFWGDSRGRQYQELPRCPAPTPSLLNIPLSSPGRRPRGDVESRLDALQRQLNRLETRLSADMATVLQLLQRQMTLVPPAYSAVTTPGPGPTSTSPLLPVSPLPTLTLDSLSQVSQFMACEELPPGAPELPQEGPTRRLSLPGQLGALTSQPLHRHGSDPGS

Chain of hERG (KCNH2) (Q12809 whole entry): as above

SMILES: O=c1ccc2ncc(=O)n3c2n1C[C@H]3CN1CCC(NCc2cc3c(cn2)OCCC3)CC1 [GEPOTIDACIN]
IC50 [3]: 2 µM
logP [1]: 0.1
Activity [4]: inactive
Activity [5]: Active
MIC90 [2]: 10 µM (≈ 4.49 µg/mL)

SMILES: COc1c(N2C[C@@H]3CCCN[C@@H]3C2)c(F)cc2c(=O)c(C(=O)O)cn(C3CC3)c12 [MOXIFLOXACIN]
MIC90 [6]: 4 µM (≈ 1.61 µg/mL)
MIC90 [7]: 4 µM (≈ 1.61 µg/mL)
MIC90 [8]: 2 µM (≈ 0.803 µg/mL)
MIC90 (Staphylococcus aureus): 0.2 µM (≈ 0.0803 µg/mL)
MIC90 [2]: 2 µM (≈ 0.803 µg/mL)
MIC90 [9]: 4 µM (≈ 1.61 µg/mL)
MIC90 (Mycobacterium avium): 0.6 µM (≈ 0.241 µg/mL)

SMILES: COc1ccc2nccc(NC(=O)C3CCN(CCc4cccc(F)c4)CC3)c2n1
logP [1]: 2.1
MIC90 [2]: 25 µM (≈ 10.2 µg/mL)

SMILES: COc1ccc2nccc(NC(=O)C3CCN(CCc4ccc(C(F)(F)F)cc4)CC3)c2n1
Activity (NIH3T3): Non-Toxic
Activity (HEK293): Non-Toxic
Stability [10]: Stable
IC50 [3]: 1.5 µM
MIC90 [6]: 2 µM (≈ 0.917 µg/mL)
Activity (MCF7): inactive
MIC90 [7]: 3.5 µM (≈ 1.6 µg/mL)
Activity (FaDu): inactive
logP [1]: 2.9
Activity (HT-29): inactive
Stability [11]: Stable
inhibition at 10 µM (hERG (KCNH2)): 93%
MIC90 [8]: 1.5 µM (≈ 0.688 µg/mL)
MIC90 (Staphylococcus aureus): 0.2 µM (≈ 0.0917 µg/mL)
MIC90 [2]: 1.5 µM (≈ 0.688 µg/mL)
Activity (A-375): inactive
MIC90 [9]: 2 µM (≈ 0.917 µg/mL)
MIC90 (Mycobacterium avium): 2.5 µM (≈ 1.15 µg/mL)

SMILES: COc1ccc2nccc(NS(=O)(=O)C3CCN(CCc4ccc(C(F)(F)F)cc4)CC3)c2n1
logP [1]: 2.4
MIC90 [2]: 100 µM (≈ 49.5 µg/mL)

SMILES: COc1cnc2ccc(=O)n(CCN3CCC(NCc4ccc(Cl)c(Cl)c4)CC3)c2c1
MIC [2]: < 0.02 µM
IC50 [12]: 1.32 µM

SMILES: COc1ccc2nccc(NC(=O)C3CCN(CCc4ccc(C(F)(F)F)c(F)c4)CC3)c2n1
Activity (NIH3T3): Non-Toxic
Activity (HEK293): Non-Toxic
MIC90 [6]: 1 µM (≈ 0.476 µg/mL)
Activity (MCF7): inactive
MIC90 [7]: 2 µM (≈ 0.953 µg/mL)
Activity (FaDu): inactive
logP [1]: 3.1
Activity (HT-29): inactive
MIC90 [8]: 0.6 µM (≈ 0.286 µg/mL)
MIC90 (Staphylococcus aureus): 0.5 µM (≈ 0.238 µg/mL)
MIC90 [2]: 0.6 µM (≈ 0.286 µg/mL)
Activity (A-375): inactive
MIC90 [9]: 1.5 µM (≈ 0.715 µg/mL)
MIC90 (Mycobacterium avium): 0.8 µM (≈ 0.381 µg/mL)

SMILES: COc1ccc2nccc(NC(=O)C3(C)CCN(CCc4ccc(C(F)(F)F)cc4)CC3)c2n1
Activity (NIH3T3): Non-Toxic
Activity (HEK293): Non-Toxic
Stability [10]: Stable
IC50 [3]: 6 µM
MIC90 [6]: 6.4 µM (≈ 3.02 µg/mL)
Activity (MCF7): inactive
MIC90 [7]: 8 µM (≈ 3.78 µg/mL)
Activity (FaDu): inactive
logP [1]: 3.3
Activity (HT-29): inactive
Stability [11]: Stable
MIC90 [8]: 3 µM (≈ 1.42 µg/mL)
MIC90 (Staphylococcus aureus): 1 µM (≈ 0.473 µg/mL)
MIC90 [2]: 3 µM (≈ 1.42 µg/mL)
Activity (A-375): inactive
MIC90 [9]: 8 µM (≈ 3.78 µg/mL)
MIC90 (Mycobacterium avium): 6 µM (≈ 2.84 µg/mL)

SMILES: COc1ccc2nccc(NC(=O)C3CCN(CCc4ccc(F)cc4F)CC3)c2n1
logP [1]: 2.3
MIC90 [2]: 50 µM (≈ 21.3 µg/mL)

SMILES: COc1ccc2nccc(NC(=O)C3CCN(CCc4c(F)cccc4F)CC3)c2n1
logP [1]: 2.3
MIC90 [2]: 100 µM (≈ 42.6 µg/mL)

SMILES: COc1ccc2nccc(NC(=O)C3CCN(CCc4ccccc4F)CC3)c2n1
logP [1]: 2.1
MIC90 [2]: 50 µM (≈ 20.4 µg/mL)

SMILES: COc1ccc2nccc(NC(=O)CC3CCN(Cc4ccc(C(F)(F)F)cc4)CC3)c2n1
IC50 [3]: 40 µM
logP [1]: 2.8
MIC90 [2]: 100 µM (≈ 45.8 µg/mL)

SMILES: COc1ccc2nccc(NC(=O)C3CCN(CCc4cc(F)cc(F)c4)CC3)c2n1
logP [1]: 2.3
MIC90 [2]: 50 µM (≈ 21.3 µg/mL)

SMILES: O=C1COc2ccc(CNC3CCN(CCn4c(=O)ccc5ccc(Oc6ccccn6)nc54)CC3)nc2N1
IC50 [3]: 0.11 µM
MIC [2]: 0.06 µM (≈ 0.0317 µg/mL)
IC50 [12]: 155 µM

SMILES: COc1ccc2nccc(NC(=O)C3CCN(CCc4cccc(F)c4F)CC3)c2n1
logP [1]: 2.3
MIC90 [2]: 100 µM (≈ 42.6 µg/mL)

SMILES: COc1ccc2nccc(NC(=O)[C@H]3CC[C@H](NCc4ccc(C(F)(F)F)cc4)CC3)c2n1
Activity (NIH3T3): Non-Toxic
Activity (HEK293): Non-Toxic
IC50 [3]: 1.5 µM
MIC90 [6]: 1 µM (≈ 0.458 µg/mL)
Activity (MCF7): inactive
MIC90 [7]: 2 µM (≈ 0.917 µg/mL)
Activity (FaDu): inactive
logP [1]: 3.3
Activity (HT-29): inactive
MIC90 [8]: 0.4 µM (≈ 0.183 µg/mL)
MIC90 (Staphylococcus aureus): 0.7 µM (≈ 0.321 µg/mL)
MIC90 [2]: 0.4 µM (≈ 0.183 µg/mL)
Activity (A-375): inactive
MIC90 [9]: 1.2 µM (≈ 0.55 µg/mL)
MIC90 (Mycobacterium avium): 2 µM (≈ 0.917 µg/mL)

SMILES: COc1ccc2nccc(NC(=O)C3CCN(CCc4ccc(F)c(F)c4)CC3)c2n1
logP [1]: 2.3
MIC90 [2]: 25 µM (≈ 10.7 µg/mL)

Now from value to compound, other results behind:

logP [1]: 4
MIC90 [2]: 100 µM (≈ 47.4 µg/mL)
SMILES: COc1ccc2nccc(NC(=O)C3CCN(CCc4ccc(OC(F)(F)F)cc4)CC3)c2n1

IC50 [3]: 3 µM
logP [1]: 2.6
MIC90 [2]: 12 µM (≈ 5.1 µg/mL)
SMILES: COc1ccc2nccc(NC(=O)C3CCN(CCc4ccc(Cl)cc4)CC3)c2n1
Activity (MCF7): inactive
Activity (FaDu): inactive
Activity (HT-29): inactive
Activity (A-375): inactive

logP [1]: 2.1
MIC90 [2]: 50 µM (≈ 20.4 µg/mL)
SMILES: COc1ccc2nccc(NC(=O)C3CCN(CCc4ccc(F)cc4)CC3)c2n1

IC50 [3]: 3 µM
logP [1]: 3.9
MIC90 [2]: 50 µM (≈ 23.1 µg/mL)
SMILES: O=C(Nc1cccc2ccc(Cl)nc12)C1CCN(CCc2ccc(C(F)(F)F)cc2)CC1

IC50 [3]: 6 µM
logP [1]: 3
MIC90 [2]: 100 µM (≈ 45.7 µg/mL)
SMILES: COc1ccc2nccc(NC(=O)C3CCN(CCc4ccc(C(F)(F)F)cc4)CC3)c2c1

logP [1]: 1.9
MIC90 [2]: 100 µM (≈ 42.1 µg/mL)
SMILES: COc1ccc(CCN2CCC(C(=O)Nc3ccnc4ccc(OC)nc34)CC2)cc1

logP [1]: 2.8
MIC90 [2]: 50 µM (≈ 21.2 µg/mL)
SMILES: COc1ccc2nccc(NC(=O)C3CCN(CCc4ccc(Cl)cc4)CC3)c2c1

IC50 [3]: 3 µM
logP [1]: 3.6
MIC90 [2]: 3.12 µM (≈ 1.43 µg/mL)
SMILES: COc1ccc2cccc(NC(=O)C3CCN(CCc4ccc(C(F)(F)F)cc4)CC3)c2n1
Activity (NIH3T3): Non-Toxic
Activity (HEK293): Non-Toxic
Activity (MCF7): inactive
Activity (FaDu): inactive
Activity (HT-29): inactive
Activity (A-375): inactive

logP [1]: 2.9
MIC90 [2]: 12.5 µM (≈ 5.73 µg/mL)
SMILES: COc1ccc2nccc(NC(=O)C3CCN(CCc4cccc(C(F)(F)F)c4)CC3)c2n1
Activity (NIH3T3): Non-Toxic
Activity (HEK293): Non-Toxic
Activity (MCF7): inactive
Activity (FaDu): inactive
Activity (HT-29): inactive
Activity (A-375): inactive
